Test results: patent US20230085307A1, “PYRIDAZINONE COMPOUND AND HERBICIDE” (NISSAN CHEMICAL CORPORATION, priority 2019, published 2023)

How the values were obtained:
barnyard grass [1] = assay: Test Example 3: herbicidal effect by foliage application, Wagner pot (Table 18, symbol H); format: in vivo, barnyard grass (Echinochloa crus-galli); settings: amount of applied herbicide 320 g/ha
Method in brief: (§1)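 Plants were sown in alluvial soil held under 0.1–0.5 cm standing water and grown 14 days in a greenhouse at 25–30 °C. An emulsifiable formulation, water-diluted to the set dose, was then sprayed onto the foliage, and effects were scored three weeks later using previously defined criteria.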

Chinese sprangletop = assay: Test Example 3: herbicidal effect by foliage application, Wagner pot (Table 18, symbol D); format: in vivo, chinese sprangletop (Leptochloa chinensis); settings: amount of applied herbicide 320 g/ha
Method in brief: as §1

southern crabgrass [2] = assay: Test Example 4: herbicidal effect by soil treatment (Table 19, symbol F); format: in vivo, southern crabgrass (Digitaria ciliaris); settings: amount of applied herbicide 320 g/ha
Method in brief: (§2)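 Scoring uses the grading scale of an earlier test, three weeks post-application. Treatment consists of spraying a diluted emulsion formulation across the surface of sterilized diluvial soil in which seeds are buried near 1.5 cm deep; boxes are kept in a greenhouse between 25° C. and 30° C.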

green foxtail [3] = assay: Test Example 4: herbicidal effect by soil treatment (Table 19, symbol G); format: in vivo, green foxtail (Setaria viridis); settings: amount of applied herbicide 320 g/ha
Method in brief: as §2

barnyard grass [4] = assay: Test Example 4: herbicidal effect by soil treatment (Table 19, symbol H); format: in vivo, barnyard grass (Echinochloa crus-galli); settings: amount of applied herbicide 320 g/ha
Method in brief: as §2

wild oat [5] = assay: Test Example 4: herbicidal effect by soil treatment (Table 19, symbol I); format: in vivo, wild oat (Avena fatua); settings: amount of applied herbicide 320 g/ha
Method in brief: as §2

blackgrass [6] = assay: Test Example 4: herbicidal effect by soil treatment (Table 19, symbol J); format: in vivo, blackgrass (Alopecurus myosuroides); settings: amount of applied herbicide 320 g/ha
Method in brief: as §2

Italian ryegrass [7] = assay: Test Example 4: herbicidal effect by soil treatment (Table 19, symbol K); format: in vivo, Italian ryegrass (Lolium multiflorum); settings: amount of applied herbicide 320 g/ha
Method in brief: as §2

windgrass [8] = assay: Test Example 4: herbicidal effect by soil treatment (Table 19, symbol L); format: in vivo, windgrass (Apera spica-venti); settings: amount of applied herbicide 320 g/ha
Method in brief: as §2

velvetleaf [9] = assay: Test Example 4: herbicidal effect by soil treatment (Table 19, symbol M); format: in vivo, velvetleaf (Abutilon theophrasti); settings: amount of applied herbicide 320 g/ha
Method in brief: as §2

redroot pigweed [10] = assay: Test Example 4: herbicidal effect by soil treatment (Table 19, symbol N); format: in vivo, redroot pigweed (Amaranthus retroflexus); settings: amount of applied herbicide 320 g/ha
Method in brief: as §2

lambsquarters [11] = assay: Test Example 4: herbicidal effect by soil treatment (Table 19, symbol O); format: in vivo, lambsquarters (Chenopodium album); settings: amount of applied herbicide 320 g/ha
Method in brief: as §2

chickweed [12] = assay: Test Example 4: herbicidal effect by soil treatment (Table 19, symbol P); format: in vivo, common chickweed (Stellaria media); settings: amount of applied herbicide 320 g/ha
Method in brief: as §2

persian speedwell [13] = assay: Test Example 4: herbicidal effect by soil treatment (Table 19, symbol R); format: in vivo, Persian speedwell (Veronica persica); settings: amount of applied herbicide 320 g/ha
Method in brief: as §2

southern crabgrass [14] = assay: Test Example 5: herbicidal effect by foliage application, plastic box (Table 20, symbol F); format: in vivo, southern crabgrass (Digitaria ciliaris); settings: foliage application
Method in brief: (§3)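 Post-emergence foliar test in sterilized diluvial soil. Compound applied as water-diluted emulsion at a predetermined rate to 14-day-old plants; evaluation at three weeks.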

green foxtail [15] = assay: Test Example 5: herbicidal effect by foliage application, plastic box (Table 20, symbol G); format: in vivo, green foxtail (Setaria viridis); settings: foliage application
Method in brief: as §3

barnyard grass [16] = assay: Test Example 5: herbicidal effect by foliage application, plastic box (Table 20, symbol H); format: in vivo, barnyard grass (Echinochloa crus-galli); settings: foliage application
Method in brief: as §3

wild oat [17] = assay: Test Example 5: herbicidal effect by foliage application, plastic box (Table 20, symbol I); format: in vivo, wild oat (Avena fatua); settings: foliage application
Method in brief: as §3

blackgrass [18] = assay: Test Example 5: herbicidal effect by foliage application, plastic box (Table 20, symbol J); format: in vivo, blackgrass (Alopecurus myosuroides); settings: foliage application
Method in brief: as §3

Italian ryegrass [19] = assay: Test Example 5: herbicidal effect by foliage application, plastic box (Table 20, symbol K); format: in vivo, Italian ryegrass (Lolium multiflorum); settings: foliage application
Method in brief: as §3

windgrass [20] = assay: Test Example 5: herbicidal effect by foliage application, plastic box (Table 20, symbol L); format: in vivo, windgrass (Apera spica-venti); settings: foliage application
Method in brief: as §3

velvetleaf [21] = assay: Test Example 5: herbicidal effect by foliage application, plastic box (Table 20, symbol M); format: in vivo, velvetleaf (Abutilon theophrasti); settings: foliage application
Method in brief: as §3

redroot pigweed [22] = assay: Test Example 5: herbicidal effect by foliage application, plastic box (Table 20, symbol N); format: in vivo, redroot pigweed (Amaranthus retroflexus); settings: foliage application, AAH 320 g/ha, evaluated three weeks after application
Method in brief: as §3

lambsquarters [23] = assay: Test Example 5: herbicidal effect by foliage application, plastic box (Table 20, symbol O); format: in vivo, lambsquarters (Chenopodium album); settings: foliage application
Method in brief: as §3

chickweed [24] = assay: Test Example 5: herbicidal effect by foliage application, plastic box (Table 20, symbol P); format: in vivo, common chickweed (Stellaria media); settings: foliage application, AAH 320 g/ha, evaluated three weeks after application
Method in brief: as §3

false cleavers = assay: Test Example 5: herbicidal effect by foliage application, plastic box (Table 20, symbol Q); format: in vivo, false cleavers (Galium spurium); settings: foliage application
Method in brief: as §3

persian speedwell [25] = assay: Test Example 5: herbicidal effect by foliage application, plastic box (Table 20, symbol R); format: in vivo, Persian speedwell (Veronica persica); settings: foliage application
Method in brief: as §3

rice flat sedge = assay: Test Example 3: herbicidal effect by foliage application, Wagner pot (Table 18, symbol E); format: in vivo, rice flat sedge (Cyperus iria); settings: amount of applied herbicide 320 g/ha
Method in brief: as §1

[26] = AAH 320 g/ha, evaluated three weeks after application
[27] = 320 g/ha, three weeks after application

**Q.** Which results are given for `Cc1nn(C)c(=O)c(-c2c(-c3ccc(S(=O)(=O)C(C)C)cc3)sc3ccc(F)cc23)c1O` [2-259]?
**A.** herbicidal effect on H: barnyard grass (barnyard grass [1]): 4 (Herbicidal rate of 70% or more and less than 90%); herbicidal effect on D: Chinese sprangletop (Chinese sprangletop): 3 (Herbicidal rate of 40% or more and less than 70%); herbicidal effect on F: southern crabgrass (southern crabgrass [2]): 0 (Herbicidal rate of 5% or less (almost no effect)); herbicidal effect on G: green foxtail (green foxtail [3]): 1 (Herbicidal rate of 5% or more and less than 20%); herbicidal effect on H: barnyard grass (barnyard grass [4]): 0 (Herbicidal rate of 5% or less (almost no effect)); herbicidal effect on I: wild oat (wild oat [5]): 0 (Herbicidal rate of 5% or less (almost no effect)); herbicidal effect on J: blackgrass (blackgrass [6]): 4 (Herbicidal rate of 70% or more and less than 90%); herbicidal effect on K: Italian ryegrass (Italian ryegrass [7]): 4 (Herbicidal rate of 70% or more and less than 90%); herbicidal effect on L: windgrass (windgrass [8]): 0 (Herbicidal rate of 5% or less (almost no effect)); herbicidal effect on M: velvetleaf (velvetleaf [9]): 3 (Herbicidal rate of 40% or more and less than 70%); herbicidal effect on N: redroot pigweed (redroot pigweed [10]): 4 (Herbicidal rate of 70% or more and less than 90%); herbicidal effect on O: lambsquarters (lambsquarters [11]): 3 (Herbicidal rate of 40% or more and less than 70%); herbicidal effect on P: chickweed (chickweed [12]): 1 (Herbicidal rate of 5% or more and less than 20%); herbicidal effect on R: persian speedwell (persian speedwell [13]): 5 (Herbicidal rate of 90% or more (almost completely withered)); F: southern crabgrass, herbicidal effect (criteria 0-5) (southern crabgrass [14]; [26]): 4 (Herbicidal rate of 70% or more and less than 90%); G: green foxtail, herbicidal effect (criteria 0-5) (green foxtail [15]; [26]): 3 (Herbicidal rate of 40% or more and less than 70%); H: barnyard grass, herbicidal effect (criteria 0-5) (barnyard grass [16]; [26]): 3 (Herbicidal rate of 40% or more and less than 70%); I: wild oat, herbicidal effect (criteria 0-5) (wild oat [17]; [26]): 4 (Herbicidal rate of 70% or more and less than 90%); J: blackgrass, herbicidal effect (criteria 0-5) (blackgrass [18]; [26]): 4 (Herbicidal rate of 70% or more and less than 90%); K: Italian ryegrass, herbicidal effect (criteria 0-5) (Italian ryegrass [19]; [26]): 4 (Herbicidal rate of 70% or more and less than 90%); L: windgrass, herbicidal effect (criteria 0-5) (windgrass [20]; [26]): 1 (Herbicidal rate of 5% or more and less than 20%); M: velvetleaf, herbicidal effect (criteria 0-5) (velvetleaf [21]; [26]): 4 (Herbicidal rate of 70% or more and less than 90%); N: redroot pigweed, herbicidal effect (criteria 0-5) (redroot pigweed [22]): 5 (Herbicidal rate of 90% or more (almost completely withered)); O: lambsquarters, herbicidal effect (criteria 0-5) (lambsquarters [23]; [26]): 4 (Herbicidal rate of 70% or more and less than 90%); P: chickweed, herbicidal effect (criteria 0-5) (chickweed [24]): 5 (Herbicidal rate of 90% or more (almost completely withered)); Q: false cleavers, herbicidal effect (criteria 0-5) (false cleavers; [26]): 4 (Herbicidal rate of 70% or more and less than 90%); R: persian speedwell, herbicidal effect (criteria 0-5) (persian speedwell [25]; [26]): 5 (Herbicidal rate of 90% or more (almost completely withered))

**Q.** How did the “Herbicidal effect on H (barnyard grass), foliage application” value (barnyard grass [1]) turn out when `COc1cc(F)ccc1-c1oc2ccc(C)cc2c1-c1c(O)c(C)nn(C)c1=O` [9-009] was run?
**A.** The value was 3 (Herbicidal rate of 40% or more and less than 70%).

**Q.** What about the “Herbicidal effect on D (Chinese sprangletop), foliage application” value (Chinese sprangletop) of the same compound?
**A.** The value was 0 (Herbicidal rate of 5% or less (almost no effect)).

**Q.** And the “Herbicidal effect on E (rice flat sedge), foliage application” value (rice flat sedge)?
**A.** The value was 1 (Herbicidal rate of 5% or more and less than 20%).

**Q.** And the “F: southern crabgrass, herbicidal effect grade” value (southern crabgrass [2])?
**A.** Its value is 2 (Herbicidal rate of 20% or more and less than 40%).

**Q.** And the “G: green foxtail, herbicidal effect grade” value (green foxtail [3])?
**A.** The value was 3 (Herbicidal rate of 40% or more and less than 70%).

**Q.** What about the “H: barnyard grass, herbicidal effect grade” value (barnyard grass [4]) of the same compound?
**A.** The value was 3 (Herbicidal rate of 40% or more and less than 70%).

**Q.** And the “I: wild oat, herbicidal effect grade” value (wild oat [5])?
**A.** The value was 0 (Herbicidal rate of 5% or less (almost no effect)).

**Q.** What about the “J: blackgrass, herbicidal effect grade” value (blackgrass [6]) of the same compound?
**A.** Its value is 0 (Herbicidal rate of 5% or less (almost no effect)).

**Q.** What about the “K: Italian ryegrass, herbicidal effect grade” value (Italian ryegrass [7]) of the same compound?
**A.** Its value is 0 (Herbicidal rate of 5% or less (almost no effect)).

**Q.** What about the “L: windgrass, herbicidal effect grade” value (windgrass [8]) of the same compound?
**A.** Its value is 0 (Herbicidal rate of 5% or less (almost no effect)).

**Q.** And the “M: velvetleaf, herbicidal effect grade” value (velvetleaf [9])?
**A.** The value was 0 (Herbicidal rate of 5% or less (almost no effect)).

**Q.** What about the “N: redroot pigweed, herbicidal effect grade” value (redroot pigweed [10]) of the same compound?
**A.** Its value is 0 (Herbicidal rate of 5% or less (almost no effect)).

**Q.** What about the “O: lambsquarters, herbicidal effect grade” value (lambsquarters [11]) of the same compound?
**A.** The value was 3 (Herbicidal rate of 40% or more and less than 70%).

**Q.** And the “P: chickweed, herbicidal effect grade” value (chickweed [12])?
**A.** The value was 0 (Herbicidal rate of 5% or less (almost no effect)).

**Q.** What about the “R: persian speedwell, herbicidal effect grade” value (persian speedwell [13]) of the same compound?
**A.** The value was 0 (Herbicidal rate of 5% or less (almost no effect)).

**Q.** What about the “herbicidal effect on southern crabgrass (F)” value (southern crabgrass [14]; [27]) of the same compound?
**A.** The value was 2 (Herbicidal rate of 20% or more and less than 40%).

**Q.** What about the “herbicidal effect on green foxtail (G)” value (green foxtail [15]; [27]) of the same compound?
**A.** The value was 2 (Herbicidal rate of 20% or more and less than 40%).

**Q.** And the “herbicidal effect on barnyard grass (H)” value (barnyard grass [16]; [27])?
**A.** Its value is 3 (Herbicidal rate of 40% or more and less than 70%).

**Q.** And the “herbicidal effect on wild oat (I)” value (wild oat [17]; [27])?
**A.** Its value is 2 (Herbicidal rate of 20% or more and less than 40%).

**Q.** And the “herbicidal effect on blackgrass (J)” value (blackgrass [18]; [27])?
**A.** The value was 0 (Herbicidal rate of 5% or less (almost no effect)).

**Q.** And the “herbicidal effect on Italian ryegrass (K)” value (Italian ryegrass [19]; [27])?
**A.** Its value is 1 (Herbicidal rate of 5% or more and less than 20%).

**Q.** What about the “herbicidal effect on windgrass (L)” value (windgrass [20]; [27]) of the same compound?
**A.** The value was 0 (Herbicidal rate of 5% or less (almost no effect)).

**Q.** What about the “herbicidal effect on velvetleaf (M)” value (velvetleaf [21]; [27]) of the same compound?
**A.** The value was 2 (Herbicidal rate of 20% or more and less than 40%).

**Q.** What about the “herbicidal effect on lambsquarters (O)” value (lambsquarters [23]; [27]) of the same compound?
**A.** The value was 3 (Herbicidal rate of 40% or more and less than 70%).

**Q.** What about the “herbicidal effect on false cleavers (Q)” value (false cleavers; [27]) of the same compound?
**A.** The value was 4 (Herbicidal rate of 70% or more and less than 90%).

**Q.** What about the “herbicidal effect on persian speedwell (R)” value (persian speedwell [25]; [27]) of the same compound?
**A.** Its value is 3 (Herbicidal rate of 40% or more and less than 70%).
